The record followed here is a melting point compilation (Tetko et al.; mined from patent text by program, amines drawn as free bases though some values may be those of a salt).

Residues, ends and D or L forms follow the SMILES beside them. *: point of attachment. Boc = CC(C)(C)OC(=O)*; Bn = c1ccc(C*)cc1

`CCOCCOc1ccc(-c2ccc3c(c2)C=C(C(=O)Nc2ccc(CN(C)C4CCOCC4)cc2)CCS3(=O)=O)cc1OCCOCC`: the melting point fell in the range of 150 to 151 °C.
With `COC(=O)C(NCC(=O)c1ccccc1)C(C)C` (racemic) the figure was 32.5 to 50.8 °C; with `C#Cc1ccc2c(c1)C(c1ccccn1)=NC(C)c1c(C(=O)OCC)ncn1-2` (configuration not stated), 235 to 237 °C; with `Cc1cccc(C)c1NC(=S)N1CC(Oc2cccc(C(F)(F)F)c2)C1`, 197 to 199 °C.
The value for `CCCc1nc(N)cc(OC)n1` was 97 to 99 °C.
`C#Cc1ccc2ccc(C#C)cc2c1` gave a melting point of 124 to 126 °C.
In the case of `O=c1c2ccc(F)cc2ncn1Cc1ccccc1`, the melting point is 110 to 111 °C.
With `Cc1ccn2c(-c3ccnc(-c4ccc(OCC(N)=O)cc4)c3)c(-c3cccc(C)n3)nc2c1` the figure was 213 °C; with `Cn1cnc2cc(NC(=O)c3cc4cc(F)ccc4n3Cc3cccc(F)c3)cnc21`, 235 to 236 °C; with `CCC(CC)c1ccc(Cl)c2nc3n(c12)CCN3c1ccc(Cl)cc1Br`, 169 to 171 °C.
The value for `Cc1cn(-c2ccc(NC(=O)c3ccc(Cl)c(C#Cc4ccc(NC5CC5)nn4)c3)cc2C(F)(F)F)cn1` was 150 to 152 °C.
On to `CCOC(=O)c1ccc(S(=O)(=O)C(Br)(Br)Br)cc1`, for which the melting point is 134 to 136 °C.
The value for `CN(C)CC(c1ccccc1)c1nnc2n1-c1ccc(I)cc1C(c1ccccc1)=NC2` (configuration not stated) was 192 to 194 °C; that for `Cc1oc(-c2cccc(Br)c2)nc1CCO` was 92 to 93 °C; that for `N=C(NO)c1ccc(-c2ccc([N+](=O)[O-])c(C(F)(F)F)c2)o1` was 221 °C.
The value for `CC1(c2cccc(Cl)c2)OC(C(=O)O)Oc2ccc(Cl)cc21` (configuration not stated) was 131 °C; that for `CC1c2ccccc2NC(=O)N1CCCl` (configuration not stated) was 126 °C; that for `COc1ccc(-c2cc3cc(F)c(F)cc3[nH]2)cc1NCc1ccc(O)c([N+](=O)[O-])c1` was 195 to 196 °C.
The value for `C=CCOc1cc(F)c(C#N)c(OC(C(=O)OC)c2ccccc2C)c1` (racemic) was 100 to 102 °C; that for `Cc1nc(N)nc(N)c1N1CCN(c2ccc(C=NOCC(=O)OCCc3ccccc3)cc2)CC1` was 255 to 257 °C; that for `O=c1c2cc(OCc3ccccc3)ccc2[nH]c2c([N+](=O)[O-])ccc(Cl)c12` was 216 to 217 °C.
For `NC(=Nc1ccc(CCNC(=O)c2cc(N)ccc2O)cc1)c1cccs1`, the melting point is > 260 °C.
With `COC(=O)C(CC(C)C)NC(=O)C(C)NC(=O)C(Cc1ccc(OCc2ccccc2)cc1)NC(=O)OC(C)(C)C` (stereo not drawn) (Boc-Tyr(Bn)-Ala-Leu-OMe; configuration not given here) the figure was 128 to 129 °C.
For the compound `N#Cc1cccc(C2C=C(C(F)(F)F)NC3=C2C(=O)CCC3)c1` (configuration not stated), the melting point lay within 182 to 183 °C.
The value for `COc1ccc(ON2CN=C(c3ccccc3F)O2)cc1` was 99.1 °C; that for `Cn1cc(C2=C(c3cn(C)c4cc([N+](=O)[O-])ccc34)C(=O)N(CO)C2=O)c2ccccc21` was 209 to 211 °C.
The value for `CN1CCCC1=Nc1ncnc2c1ncn2[C@H]1C=C[C@@H](O)C1` (racemic) was 135 to 138 °C; that for `CCOC(=O)C(=NNc1ccccc1CC)C(=O)OCC` was 33 to 34 °C.
The value for `Cc1cc(C2(C(F)(F)F)CC(c3ccc(C(N)=O)cc3)=NO2)ccc1NC(=O)c1cccc(I)c1C(=O)NC(C)C` (configuration not stated) was 173 to 175 °C; that for `COc1ccc(-c2ccccn2)c(NC(=O)CC(C)NC(=O)OC(C)(C)C)c1` (configuration not stated) was 143 to 145 °C.
In the case of `CC(C)(C)c1ccc(-c2nc3c4[nH]cnc4nc(CP(=O)(O)O)n3n2)cc1`, the melting point came out at 270 °C.
With `CC(C)(NC(=O)C(CS)Cc1ccccc1)C(=O)O` (configuration not stated) the figure was 175 to 176 °C.
